Measurements as given in PubChem BioAssay AID248 (DTP/NCI, 2004).
“And” between values parts separate entries of the source, which are not always exact repeats. Equal entries are not always repeated. Toxic doses and inconclusive results are not listed. Rule as the data show it: active = T/C of 150% or more; inactive = T/C below 125%.

System: L1210 leukemia ip in BDF1 mice, survival T/C
Assay: NCI In Vivo Anticancer Drug Screen. Data for tumor model L1210 Leukemia (intraperitoneal) in B6D2F1 (BDF1) mice
Details: endpoint: mean survival time, higher = longer survival
In short: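 Transplantable tumor model; survival measured in treated vs vehicle control mice. Value = treated/control.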

[1] = dose: 100.0 mg/kg/injection, schedule: Q04DX003 (ip), vehicle: saline with Tween-80
[2] = dose: 200.0 mg/kg/injection, schedule: Q04DX003 (ip), vehicle: saline with Tween-80
[3] = dose: 400.0 mg/kg/injection, schedule: Q04DX003 (ip), vehicle: saline with Tween-80
[4] = dose: 100.0 mg/kg/injection, schedule: Q04DX002 (ip), vehicle: saline with Tween-80
[5] = dose: 200.0 mg/kg/injection, schedule: Q04DX002 (ip), vehicle: saline with Tween-80
[6] = dose: 400.0 mg/kg/injection, schedule: Q04DX002 (ip), vehicle: saline with Tween-80
[7] = dose: 100.0 mg/kg/injection, schedule: Q01DX009 (ip), vehicle: Klucel (hydroxypropylcellulose) (HPC)
[8] = dose: 200.0 mg/kg/injection, schedule: Q01DX009 (ip), vehicle: Klucel (hydroxypropylcellulose) (HPC)
[9] = dose: 400.0 mg/kg/injection, schedule: Q01DX009 (ip), vehicle: Klucel (hydroxypropylcellulose) (HPC)
[10] = dose: 100.0 mg/kg/injection, schedule: Q04DX003 (ip), vehicle: Klucel (hydroxypropylcellulose) (HPC)
[11] = dose: 200.0 mg/kg/injection, schedule: Q04DX003 (ip), vehicle: Klucel (hydroxypropylcellulose) (HPC)

Measured: T/C

Cc1cc(N(CCCl)CCCl)c(C)cc1NC(=O)c1ccccc1
inactive: dose: 0.75 mg/kg/injection, schedule: Q01DX009 (ip), vehicle: other 109 % of control | dose: 1.5 mg/kg/injection, schedule: Q01DX009 (ip), vehicle: other 105 % of control | dose: 3.0 mg/kg/injection, schedule: Q01DX009 (ip), vehicle: other 124 % of control | dose: 5.0 mg/kg/injection, schedule: Q01DX001 (ip), vehicle: other 118 % of control | dose: 6.0 mg/kg/injection, schedule: Q01DX009 (ip), vehicle: carboxymethylcellulose (CMC) 119 % of control | dose: 10.0 mg/kg/injection, schedule: Q01DX001 (ip), vehicle: other 114 % of control | dose: 10.0 mg/kg/injection, schedule: Q01DX001 (ip), vehicle: saline 117 % of control | dose: 10.0 mg/kg/injection, schedule: Q01DX009 (ip), vehicle: carboxymethylcellulose (CMC) 119 % of control | dose: 17.6 mg/kg/injection, schedule: Q01DX001 (ip), vehicle: carboxymethylcellulose (CMC) 111 % of control | dose: 17.6 mg/kg/injection, schedule: Q01DX001 (ip), vehicle: other 110 % of control and 115 % of control | dose: 18.0 mg/kg/injection, schedule: Q01DX009 (ip), vehicle: carboxymethylcellulose (CMC) 117 % of control | dose: 20.0 mg/kg/injection, schedule: Q01DX001 (ip), vehicle: other 122 % of control | dose: 20.0 mg/kg/injection, schedule: Q01DX001 (ip), vehicle: saline 96 % of control | dose: 26.0 mg/kg/injection, schedule: Q01DX001 (ip), vehicle: carboxymethylcellulose (CMC) 120 % of control | dose: 26.0 mg/kg/injection, schedule: Q01DX001 (ip), vehicle: other 115 % of control | dose: 30.0 mg/kg/injection, schedule: Q01DX009 (ip), vehicle: carboxymethylcellulose (CMC) 101 % of control | dose: 30.0 mg/kg/injection, schedule: Q01DX009 (ip), vehicle: other 96 % of control | dose: 40.0 mg/kg/injection, schedule: Q01DX001 (ip), vehicle: other 124 % of control | dose: 40.0 mg/kg/injection, schedule: Q01DX001 (ip), vehicle: saline 122 % of control | dose: 80.0 mg/kg/injection, schedule: Q01DX001 (ip), vehicle: carboxymethylcellulose (CMC) 120 % of control | dose: 80.0 mg/kg/injection, schedule: Q01DX001 (ip), vehicle: saline 114 % of control | dose: 120.0 mg/kg/injection, schedule: Q01DX001 (ip), vehicle: carboxymethylcellulose (CMC) 88 % of control

CCCCCCCC(=O)Nc1cccc(OC(=O)NC)c1
inactive: [1] 98 % of control | [2] 94 % of control | [3] 96 % of control

OC/C=[CH]\[Sn]([c]1ccccc1)([c]1ccccc1)[c]1ccccc1
inactive: [4] 95 % of control | [5] 119 % of control | [6] 119 % of control

CC(=O)N(C)c1ccc(NC2=NCCO2)cc1
inactive: [1] 98 % of control | [2] 101 % of control | [3] 98 % of control

NC(=O)CCP(=O)(CCC(N)=O)CCC(N)=O
inactive: dose: 50.0 mg/kg/injection, schedule: Q01DX009 (ip), vehicle: saline 94 % of control | dose: 50.0 mg/kg/injection, schedule: Q04DX003 (ip), vehicle: saline 101 % of control | dose: 100.0 mg/kg/injection, schedule: Q01DX009 (ip), vehicle: saline 94 % of control | dose: 100.0 mg/kg/injection, schedule: Q04DX003 (ip), vehicle: saline 103 % of control | dose: 200.0 mg/kg/injection, schedule: Q01DX009 (ip), vehicle: saline 90 % of control | dose: 200.0 mg/kg/injection, schedule: Q04DX003 (ip), vehicle: saline 95 % of control | dose: 400.0 mg/kg/injection, schedule: Q04DX003 (ip), vehicle: saline 98 % of control

CSc1ccc(OC(=O)Nc2cc(Cl)ccc2C)cc1
inactive: dose: 100.0 mg/kg/injection, schedule: Q01DX001 (ip), vehicle: saline with Tween-80 98 % of control | dose: 100.0 mg/kg/injection, schedule: Q01DX009 (ip), vehicle: saline with Tween-80 95 % of control and 98 % of control | [4] 97 % of control | [1] 96 % of control | dose: 200.0 mg/kg/injection, schedule: Q01DX001 (ip), vehicle: saline with Tween-80 96 % of control | dose: 200.0 mg/kg/injection, schedule: Q01DX009 (ip), vehicle: saline with Tween-80 96 % of control and 103 % of control | [5] 94 % of control and 101 % of control | [2] 98 % of control | dose: 400.0 mg/kg/injection, schedule: Q01DX001 (ip), vehicle: saline with Tween-80 93 % of control | [6] 94 % of control and 105 % of control

Cc1ccc(C(=O)CCCCl)c(C)c1
inactive: [1] 99 % of control | [2] 94 % of control | [3] 96 % of control

Cc1cc(Cl)ccc1OCC(=O)Nc1cccc(C(F)(F)F)c1
inactive: dose: 100.0 mg/kg/injection, schedule: Q04DX002 (ip), vehicle: saline 103 % of control | dose: 200.0 mg/kg/injection, schedule: Q04DX002 (ip), vehicle: saline 100 % of control | dose: 400.0 mg/kg/injection, schedule: Q04DX002 (ip), vehicle: saline 92 % of control

C=CCc1ccc(OC(=O)Nc2ccc([N+](=O)[O-])cc2OC)c(OC)c1
inactive: [7] 96 % of control | [8] 93 % of control | [9] 96 % of control

C(#CP(c1ccccc1)c1ccccc1)P(c1ccccc1)c1ccccc1
inactive: dose: 50.0 mg/kg/injection, schedule: Q04DX003 (ip), vehicle: Klucel (hydroxypropylcellulose) (HPC) 98 % of control | [10] 101 % of control | [11] 102 % of control

CC/C(=C\c1cccc([N+](=O)[O-])c1)C(=O)O
inactive: [7] 97 % of control | [10] 96 % of control | [8] 92 % of control | [11] 95 % of control | [9] 100 % of control | dose: 400.0 mg/kg/injection, schedule: Q04DX003 (ip), vehicle: Klucel (hydroxypropylcellulose) (HPC) 95 % of control

O=C(O)c1ccccc1Nc1ccccc1[N+](=O)[O-]
inactive: dose: 100.0 mg/kg/injection, schedule: Q01DX005 (ip), vehicle: Klucel (hydroxypropylcellulose) (HPC) 90 % of control | [7] 87 % of control | dose: 100.0 mg/kg/injection, schedule: Q04DX002 (ip), vehicle: Klucel (hydroxypropylcellulose) (HPC) 93 % of control | dose: 200.0 mg/kg/injection, schedule: Q01DX005 (ip), vehicle: Klucel (hydroxypropylcellulose) (HPC) 94 % of control | [8] 102 % of control | dose: 200.0 mg/kg/injection, schedule: Q04DX002 (ip), vehicle: Klucel (hydroxypropylcellulose) (HPC) 100 % of control | dose: 400.0 mg/kg/injection, schedule: Q01DX005 (ip), vehicle: Klucel (hydroxypropylcellulose) (HPC) 105 % of control | [9] 94 % of control | dose: 400.0 mg/kg/injection, schedule: Q04DX002 (ip), vehicle: Klucel (hydroxypropylcellulose) (HPC) 96 % of control

CCCCCS(=O)(=O)N(CC)CC
inactive: [4] 96 % of control | [5] 96 % of control | [6] 89 % of control

O=[As](O)(CC(O)COc1ccccc1)c1ccccc1 (stereo not drawn)
inactive: dose: 6.25 mg/kg/injection, schedule: Q01DX001 (ip), vehicle: saline with Tween-80 98 % of control | dose: 12.5 mg/kg/injection, schedule: Q01DX001 (ip), vehicle: saline with Tween-80 98 % of control

Cc1ccnc2ccc3ccccc3c12
inactive: dose: 100.0 mg/kg/injection, schedule: Q01DX001 (ip), vehicle: other 101 % of control | dose: 200.0 mg/kg/injection, schedule: Q01DX001 (ip), vehicle: other 107 % of control | dose: 400.0 mg/kg/injection, schedule: Q01DX001 (ip), vehicle: other 113 % of control
